# Results published in patent publication US10722514B2 (FLX Bio, Inc., priority 2017, dated 2020).
# Structures can show the parent of a compound that is named as a salt. Where two headings read alike, the source gives them in different places.
# Target: T1, recombinant full-length USP7 (Homo sapiens, UniProt Q93009)
# T1 construct: A 25 μl reaction volume containing recombinant full-length USP7 (62 pM)
# Experiment: USP7-mediated ubiquitin-rhodamine cleavage assay
# Type: biochemical
# Settings: recombinant full-length USP7 62 pM, ubiquitin-rhodamine 100 nM, 1 hour reaction at room temperature
# In short: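 IC50 values came from fluorescence measured after a 1 h room-temperature reaction of 62 pM enzyme with 100 nM ubiquitin-rhodamine, following 30 min compound preincubation; fits used four parameters.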
# [1] = 30-minute pre-incubation, read-out: Potency (USP7 IC50)
# [2] = 30-minute incubation with compound, read-out: Potency: USP7 IC50
# [3] = 30-minute incubation, read-out: Potency (USP7 IC50)
# T1 sequence (Q93009 whole entry): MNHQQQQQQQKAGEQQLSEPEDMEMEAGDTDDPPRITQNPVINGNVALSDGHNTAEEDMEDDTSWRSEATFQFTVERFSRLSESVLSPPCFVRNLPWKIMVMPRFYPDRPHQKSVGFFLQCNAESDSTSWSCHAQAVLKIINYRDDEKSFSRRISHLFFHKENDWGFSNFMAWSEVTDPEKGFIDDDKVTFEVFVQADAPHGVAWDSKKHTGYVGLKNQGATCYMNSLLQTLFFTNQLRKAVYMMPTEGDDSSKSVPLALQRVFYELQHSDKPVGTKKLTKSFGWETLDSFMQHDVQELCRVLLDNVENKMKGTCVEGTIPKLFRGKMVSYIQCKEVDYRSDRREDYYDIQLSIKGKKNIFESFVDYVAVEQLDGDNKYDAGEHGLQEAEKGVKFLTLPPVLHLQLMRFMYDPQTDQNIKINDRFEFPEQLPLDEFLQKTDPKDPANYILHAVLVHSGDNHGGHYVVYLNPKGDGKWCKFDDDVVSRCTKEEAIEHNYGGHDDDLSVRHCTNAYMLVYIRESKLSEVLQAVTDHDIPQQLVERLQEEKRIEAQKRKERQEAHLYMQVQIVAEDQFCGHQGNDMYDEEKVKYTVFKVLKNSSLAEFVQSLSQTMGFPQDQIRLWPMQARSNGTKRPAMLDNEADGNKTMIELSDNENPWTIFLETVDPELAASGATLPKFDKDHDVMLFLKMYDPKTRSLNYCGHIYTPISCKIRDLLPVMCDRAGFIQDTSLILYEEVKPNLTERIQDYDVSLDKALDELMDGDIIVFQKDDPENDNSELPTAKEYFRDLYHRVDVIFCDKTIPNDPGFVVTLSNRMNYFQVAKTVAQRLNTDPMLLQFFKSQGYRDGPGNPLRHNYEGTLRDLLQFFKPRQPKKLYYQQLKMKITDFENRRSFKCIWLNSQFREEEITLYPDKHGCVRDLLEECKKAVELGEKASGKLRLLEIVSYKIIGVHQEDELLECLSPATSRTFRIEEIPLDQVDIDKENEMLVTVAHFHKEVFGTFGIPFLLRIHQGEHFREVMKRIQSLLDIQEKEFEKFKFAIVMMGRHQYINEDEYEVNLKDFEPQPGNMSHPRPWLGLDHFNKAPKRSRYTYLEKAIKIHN
Compound,IC50 [1] [nM],IC50 [2] [nM],also measured
"CCN1CC2CC(Oc3c(C)cc(Cl)cc3-c3ccnc4cc(Cn5c(=O)ccn(C)c5=O)sc34)C1C2 (stereo not shown) [Example 466, 3-[[7-[5-chloro-2-[(3-ethyl-3-azabicyclo[2.2.1]heptan-5-yl)oxy]-3-methyl-phenyl]thieno[3,2-b]pyridin-2-yl]methyl]-1-methyl-pyrimidine-2,4-dione]",< 1000,,
"Cc1cc(Cl)cc(-c2ccnc3cc(CN4C(=O)CCC4=O)sc23)c1O[C@@H]1CNC[C@@H]1CO [Example 98, 1-((7-(5-Chloro-2-(((3S,4R)-4-(hydroxymethyl)pyrrolidin-3-yl)oxy)-3-methylphenyl)thieno[3,2-b]pyridin-2-yl)methyl)pyrrolidine-2,5-dione]",,< 1000,
"Cc1cc(Cl)cc(-c2ncnc3cc(CN4C(=O)C5C(C4=O)C5(C)C)sc23)c1O[C@@H]1C[C@@H]2C[C@H]1N(C)C2 (stereo partly drawn) [Example 390, 3-[[4-[5-chloro-3-methyl-2-[[(1S,4R,5R)-3-methyl-3-azabicyclo[2.2.1]heptan-5-yl]oxy]phenyl]thieno[3,2-d]pyrimidin-6-yl]methyl]-6,6-dimethyl-3-azabicyclo[3.1.0]hexane-2,4-dione dihydrochloride]",,< 1000,
"Cc1cc(Cl)cc(-c2ccnc3cc(Cn4c(=O)ccn(C)c4=O)sc23)c1O[C@@H]1CN(C(C)C)C[C@@H]1F [Example 469, 3-[[7-[5-chloro-2-[(3R,4S)-4-fluoro-1-isopropyl-pyrrolidin-3-yl]oxy-3-methyl-phenyl]thieno[3,2-b]pyridin-2-yl]methyl]-1-methyl-pyrimidine-2,4-dione]",< 1000,,
"Cc1cc(Cl)cc(-c2ccnc3cc(CN4C(=O)CCC4=O)sc23)c1O[C@H]1[C@@H]2CNC[C@H]1C2 [Example 206, 1-((7-(2-(((1R,5S,6s)-3-Azabicyclo[3.1.1]heptan-6-yl)oxy)-5-chloro-3-methylphenyl)thieno[3,2-b]pyridin-2-yl)methyl)pyrrolidine-2,5-dione]",,< 1000,
"Cc1cc(Cl)cc(-c2ncnc3cc(CN4C(=O)C5C(C4=O)C5(C)C)sc23)c1OC1CC(N)C1 (stereo not shown) [Example 358, 3-[[4-[2-(3-aminocyclobutoxy)-5-chloro-3-methyl-phenyl]thieno[3,2-d]pyrimidin-6-yl]methyl]-6,6-dimethyl-3-azabicyclo[3.1.0]hexane-2,4-dione; 2,2,2-trifluoroacetic acid]",,< 1000,
"Cc1cc([N+](=O)[O-])cc(-c2ccnc3cc(Cn4c(=O)ccn(C)c4=O)sc23)c1O[C@H]1CCCNC1 [Example 573, 1-methyl-3-[[7-[3-methyl-5-nitro-2-[[(3S)-3-piperidyl]oxy]phenyl]thieno[3,2-b]pyridin-2-yl]methyl]pyrimidine-2,4-dione; 2,2,2-trifluoroacetic acid]",< 1000,,
"Cc1cc(Cl)cc(-c2ncnc3cc(CN4C(=O)C5C(C4=O)C5(C)C)sc23)c1O[C@@H]1CCNC[C@@H]1F (stereo partly drawn) [Example 377, 3-[[4-[5-chloro-2-[[(3S,4R)-3-fluoro-4-piperidyl]oxy]-3-methyl-phenyl]thieno[3,2-d]pyrimidin-6-yl]methyl]-6,6-dimethyl-3-azabicyclo[3.1.0]hexane-2,4-dione; 2,2,2-trifluoroacetic acid]",,< 1000,
"Cc1cc(Cl)cc(-c2ccnc3cc(Cn4c(=O)ccn(CC(F)(F)F)c4=O)sc23)c1OC1CCNC1(C)C (stereo not shown) [Example 344, 3-[[7-[5-chloro-2-(2,2-dimethylpyrrolidin-3-yl)oxy-3-methyl-phenyl]thieno[3,2-b]pyridin-2-yl]methyl]-1-(2,2,2-trifluoroethyl)pyrimidine-2,4-dione]",,< 1000,
"Cc1cc(Cl)cc(-c2ccnc3cc(Cn4c(=O)ccn(CC(F)(F)F)c4=O)sc23)c1O[C@@H]1C[C@@H]2NCCO[C@H]2C1 [Example 695, 3-[[7-[2-[[(4aS,6R,7aS)-2,3,4,4a,5,6,7,7a-octahydrocyclopenta[b][1,4]oxazin-6-yl]oxy]-5-chloro-3-methyl-phenyl]thieno[3,2-b]pyridin-2-yl]methyl]-1-(2,2,2-trifluoroethyl)pyrimidine-2,4-dione]",,,IC50 [3]: < 1000 nM
"Cc1cc(Cl)cc(-c2ccnc3cc(CN4C(=O)CCC4=O)sc23)c1OC1CCNC1(C)C (stereo not shown) [Example 343, 1-[[7-[5-chloro-2-(2,2-dimethylpyrrolidin-3-yl)oxy-3-methyl-phenyl]thieno[3,2-b]pyridin-2-yl]methyl]pyrrolidine-2,5-dione]",,< 1000,
"Cc1cc(Cl)cc(-c2ccnc3cc(Cn4c(=O)ccn(CC(F)(F)F)c4=O)sc23)c1O[C@@H]1CCN(CC(=O)O)C[C@@H]1C [Example 691, 2-[(3S,4R)-4-[4-chloro-2-[2-[[2,6-dioxo-3-(2,2,2-trifluoroethyl)pyrimidin-1-yl]methyl]thieno[3,2-b]pyridin-7-yl]-6-methyl-phenoxy]-3-methyl-1-piperidyl]acetic acid]",,,IC50 [3]: < 1000 nM
"Cc1cc(Cl)cc(-c2ccnc3cc(Cn4c(=O)c(F)cn(C(C)C)c4=O)sc23)c1O[C@@H]1CCNC[C@@H]1C [Example 550, 3-[[7-[5-chloro-3-methyl-2-[[(3S,4R)-3-methyl-4-piperidyl]oxy]phenyl]thieno[3,2-b]pyridin-2-yl]methyl]-5-fluoro-1-isopropyl-pyrimidine-2,4-dione]",< 1000,,

# The next lines start with results.
IC50 [1] [nM],IC50 [2] [nM],Compound,also measured
< 1000,,"Cc1cc(Cl)cc(-c2ccnc3cc(Cn4c(=O)c(F)cn(C(C)C)c4=O)sc23)c1O[C@H]1CCCNC1 [Example 547, 3-[[7-[5-chloro-3-methyl-2-[[(3S)-3-piperidyl]oxy]phenyl]thieno[3,2-b]pyridin-2-yl]methyl]-5-fluoro-1-isopropyl-pyrimidine-2,4-dione]",
< 1000,,"Cc1cc(C(F)F)cc(-c2ccnc3cc(Cn4c(=O)ccn(C)c4=O)sc23)c1O[C@H]1CCCNC1 [Example 499, 3-[[7-[5-(difluoromethyl)-3-methyl-2-[[(3S)-3-piperidyl]oxy]phenyl]thieno[3,2-b]pyridin-2-yl]methyl]-1-methyl-pyrimidine-2,4-dione]",
,< 1000,"Cc1cc(Cl)cc(-c2ccnc3cc(Cn4c(=O)ccn(C5CC5)c4=O)sc23)c1O[C@H]1CCCNC1 [Example 285, 3-[[7-[5-chloro-3-methyl-2-[[(3S)-3-piperidyl]oxy]phenyl]thieno[3,2-b]pyridin-2-yl]methyl]-1-cyclopropyl-pyrimidine-2,4-dione; 2,2,2-trifluoroacetic acid]",
< 1000,,"Cc1cc(Cl)cc(-c2ccnc3cc(Cn4c(=O)cc(C(F)(F)F)n(C)c4=O)sc23)c1O[C@H]1CCCNC1 [Example 515, 3-[[7-[5-chloro-3-methyl-2-[[(3S)-3-piperidyl]oxy]phenyl]thieno[3,2-b]pyridin-2-yl]methyl]-1-methyl-6-(trifluoromethyl)pyrimidine-2,4-dione; 2,2,2-trifluoroacetic acid]",
< 1000,,"Cc1cc(Cl)cc(-c2ccnc3cc(Cn4c(=O)ccn(CC(F)(F)F)c4=O)sc23)c1O[C@H]1CCCNCC1 [Example 656, 3-[[7-[2-[(4S)-azepan-4-yl]oxy-5-chloro-3-methyl-phenyl]thieno[3,2-b]pyridin-2-yl]methyl]-1-(2,2,2-trifluoroethyl)pyrimidine-2,4-dione; 2,2,2-trifluoroacetic acid]",
,< 1000,"Cc1cc(Cl)cc(-c2ccnc3cc(CN4C(=O)CCN(C)C4=O)sc23)c1O[C@H]1CCCNC1 [Example 162, (S)-3-((7-(5-Chloro-3-methyl-2-(piperidin-3-yloxy)phenyl)thieno[3,2-b]pyridin-2-yl)methyl)-1-methyldihydropyrimidine-2,4(1H,3H)-dione]",
